From US10464925B2, “Methods to induce targeted protein degradation through bifunctional molecules” (Dana-Farber Cancer Institute, Inc., priority 2015, dated 2019)

Assays:
BRDT = BRDT (Homo sapiens, UniProt Q58F21); experiment: BRDT IC50 (Table 4); assay type: binding; settings: read-out: IC50 (nM) BRDT
ZR-75-1_YMB-1 = experiment: cells; settings: 72 h
KP-N-YN = experiment: cells; settings: 72 h

## Cc1sc2c(c1C)C(c1ccc(Cl)cc1)=N[C@@H](CC(=O)NCCCCCCCCNC(=O)COc1cccc3c1C(=O)N(C1CCC(=O)NC1=O)C3=O)c1nnc(C)n1-2 (some centres unmarked) [dBET6]
BRDT
  IC50: 56 nM
ZR-75-1_YMB-1; read-out: Emax (%) ZR-75-1_YMB-1
  Emax: 21.6%
ZR-75-1_YMB-1; read-out: IC50 (nM) ZR-75-1_YMB-1
  IC50: 23.5 nM
KP-N-YN; read-out: Emax (%) KP-N-YN
  Emax: 42.8%
KP-N-YN; read-out: IC50 (nM) KP-N-YN
  IC50: 9.41 nM
